# Laboratory results as given in patent publication US5286864A, “Quinuclidines, their use as medicaments and processes for their preparation” (Boehringer Ingelheim KG, priority 1988, dated 1994).
# Assays:
# [1] = target: muscarine receptors; assay: Receptor bonding studies (radioligand L(+)cis-[2-methyl-^3 H]-N,N,N-trimethyl-1,3-dioxolane-4-methanammonium iodide); assay type: binding; details: cerebral cortex (rat); radioligand L(+)cis-[2-methyl-^3 H]-N,N,N-trimethyl-1,3-dioxolane-4-methanammonium iodide NET-647
# Description: The compounds of the general formula I have useful pharmacological properties.
# The receptor bonding studies were performed in accordance with the following literature reference [A. Closse, H. bittiger, D. Langenegger and A. Wahner; Naunyn-Schmiedeberg's Arch. Pharmacol. 335,372-377 (1987)].
# Receptor bonding studies
# L(+)cis-[2-methyl-^3 H]-N,N,N-trimethyl-1,3-
# dioxolane-4-methanammonium iodide NET-647,
# NEN (New England Nuclear DU PONT).
# Organ: Cerebral cortex (rat)
# [2] = tested on: conscious rabbit; assay: EEG (electroencephalogram) of the conscious rabbit; assay type: in vivo; details: 3 mg/kg i.v.
Structure (SMILES),Ki [1] [nM],arousal reaction in the EEG [2]
"C#CCOC1CN2CCC1CC2 (stereo not drawn) [Example 1, 3-(2-Propynyloxy)-1-azabicyclo[2,2,2]octane]",159,exhibits an arousal reaction typical of cholinomimetics
CCCOC1CN2CCC1CC2 (stereo not drawn) [nC3 H7],220,–
